From patent publication US20050014743A1, “Combination of an NMDA receptor antagonist and a selective serotonin reuptake inhibitor for the treatment of depression and other mood disorders” (Forest Laboratories, Inc., priority 2003, published 2005)
“Also recorded” adds a separate entry of the source.

Legend:
C57/B1 mice [1] = assay: mouse tail suspension test (TST); type: in vivo; settings: for immobility: given with vehicle; for duration of immobility: monotherapy, doses 5-20 mg/kg IP
C57/B1 mice [2] = assay: locomotor activity test (actometers, 6 min); type: in vivo, mouse
5-HT3 receptor = settings: cited from earlier work; for inhibition of 5HT3-mediated current: memantine: native N1E-115 and heterologous HEK-293 cells
NMDA receptor = target: T1, NMDA receptor (Rattus norvegicus, UniProt P35439); settings: rat hippocampal slices; cited from earlier work
T1 construct: NMDA receptor-mediated currents (in rat hippocampal slices); from tissue; host or cells: rat hippocampal slices

Structure (SMILES)	immobility (C57/B1 mice [1]; 20 mg/kg IP)	duration of immobility (C57/B1 mice [1])	locomotor activity (C57/B1 mice [2]; mouse, in vivo)	inhibition of 5HT3-mediated current (5-HT3 receptor)	further results
CNCCC(Oc1ccc(C(F)(F)F)cc1)c1ccccc1 (stereo not shown) [FLU, fluoxetine]	decreased immobility	decrease in the duration of immobility	did not change locomotor activity; also recorded: generally did not affect locomotor activity	–	–
CN(C)CCCN1c2ccccc2CCc2ccccc21 [IMI, imipramine]	decreased immobility	decrease in the duration of immobility	decreased it; also recorded: decreased locomotor activity	–	locomotor activity (C57/B1 mice [2]; mouse, in vivo, ip, 20 mg/kg): decreased locomotor activity
CC1(C)CC(C)(C)CC(C)(N)C1 [NER, 1-amino-1,3,3,5,5-pentamethylcyclohexane]	–	decreased the duration of immobility	–	inhibit	immobility (C57/B1 mice [1]; 2.5 mg/kg IP, 2.5 mg/kg): increased immobility; also recorded: without effect on immobility time; immobility (C57/B1 mice [1]; 20 mg/kg IP, 20 mg/kg): decreased immobility; locomotor activity (C57/B1 mice [2]; given with vehicle (combination study), 20 mg/kg IP): increased locomotor activity; locomotor activity (C57/B1 mice [2]; monotherapy, doses 5-20 mg/kg IP): increased locomotor activity; also recorded: consistent locomotor stimulation
COc1ccc(C(CN(C)C)C2(O)CCCCC2)cc1 (stereo not shown) [VEN, venlafaxine]	decreased immobility	decrease in the duration of immobility	–	–	immobility (C57/B1 mice [1]; 5 mg/kg IP): decreased immobility; locomotor activity (C57/B1 mice [2]; given with vehicle (combination study), 20 mg/kg IP, 20 mg/kg): increased locomotor activity; also recorded: also observed for the dose of 20 mg/kg in one of two studies; locomotor activity (C57/B1 mice [2]; given with vehicle, 5 mg/kg IP, 5 mg/kg): without effect; locomotor activity (C57/B1 mice [2]; monotherapy, 40 mg/kg IP, 40 mg/kg): increased it; also recorded: stimulated locomotion
CC12CC3CC(C)(C1)CC(N)(C3)C2 [memantine, 1-amino-3,5-dimethyl adamantane]	–	–	–	inhibit	inhibition of NMDA receptor-mediated currents (NMDA receptor): inhibit; affinity for 5HT3-mediated current relative to NMDA receptor-mediated currents (5-HT3 receptor; N1E-115 / HEK-293 cells vs rat hippocampal slices): approximately equal affinity
